Test results from patent publication US7928098B2, “Therapeutic and/or preventive agents for a sleep disorder” (Kyowa Hakko Kirin Co., Ltd., priority 2005, dated 2011).

| Compound | melting point |
| --- | --- |
| O=C(Nc1nc(-c2ccco2)c(C(=O)c2ccccn2)s1)c1ccc2c(c1)OCO2 [Compound 117, N-[4-(2-Furyl)-5-(pyridin-2-ylcarbonyl)thiazol-2-yl]-3,4-methylenedioxybenzamide] | 235 to 236 °C |
| O=C(Nc1nc(-c2ccco2)c(C(=O)c2ccccn2)s1)c1ccnc(N2CCCCC2)c1 [Compound 126, N-[4-(2-Furyl)-5-(pyridin-2-ylcarbonyl)thiazol-2-yl]-2-piperidinopyridine-4-carboxamide] | 136 to 141 °C |
| O=C(CNC12CC3CC(CC(O)(C3)C1)C2)Nc1nc(-c2ccco2)c(C(=O)C2CCOCC2)s1 [Compound 483, N-[4-(2-Furyl)-5-(tetrahydropyran-4-ylcarbonyl)thiazol-2-yl]-2-(3-hydroxyadamantan-1-ylamino)acetamide] | 176 to 178 °C |
| O=C(C=Cc1ccccc1)Nc1nc(-c2ccco2)c(C(=O)C2CCOCC2)s1 [Compound 433, N-[4-(2-Furyl)-5-(tetrahydropyran-4-ylcarbonyl)thiazol-2-yl]-3-phenylacrylamide] | 253 to 256 °C |
| O=C(CNC12CC3CC(CC(C3)C1)C2)Nc1nc(-c2ccco2)c(C(=O)C2CCOCC2)s1 [Compound 482, N-[4-(2-Furyl)-5-(tetrahydropyran-4-ylcarbonyl)thiazol-2-yl]-2-(adamantan-1-ylamino)acetamide] | 168 to 170 °C |
| O=C(CN1CCCCC1)Nc1nc(-c2ccco2)c(C(=O)C2CCOCC2)s1 [Compound 447, N-[4-(2-Furyl)-5-(tetrahydropyran-4-ylcarbonyl)thiazol-2-yl]-2-piperidinoacetamide] | 146 to 147 °C |
| Cc1ccc(C(=O)c2sc(NC(=O)c3ccncc3)nc2-c2ccco2)o1 [Compound 250, N-[4-(2-Furyl)-5-(5-methylfuran-2-ylcarbonyl)thiazol-2-yl]pyridine-4-carboxamide] | 185 to 189 °C |
| COc1ccc(-c2c[nH]c(-c3nc(-c4ccco4)c(C(=O)C4CCOCC4)s3)n2)cc1 [Compound 520, 4-(2-Furyl)-2-[4-(4-methoxyphenyl)imidazol-2-yl]thiazol-5-yl tetrahydropyran-4-yl ketone] | 178 to 180 °C |
| N#Cc1cccc(C(=O)Nc2nc(-c3ccco3)c(C(=O)C3CCOCC3)s2)c1 [Compound 378, 3-Cyano-N-[4-(2-furyl)-5-(tetrahydropyran-4-ylcarbonyl)-thiazol-2-yl]benzamide] | 257 to 260 °C |
| O=C(CCl)Nc1nc(-c2ccco2)c(C(=O)c2ccccn2)s1 [Compound 170, 2-Chloro-N-[4-(2-furyl)-5-(pyridin-2-ylcarbonyl)thiazol-2-yl]acetamide] | 184 to 185 °C |
| CCn1cc(C(=O)c2sc(NC(=O)c3ccncc3)nc2-c2ccco2)ccc1=O [Compound 269, N-[5-(1-Ethyl-2-oxo-1,2-dihydropyridin-5-ylcarbonyl)-4-(2-furyl)thiazol-2-yl]pyridine-4-carboxamide] | 295 to 296 °C |
| COC1CCC(C(=O)c2sc(NC(=O)c3ccc(C#N)cc3)nc2-c2ccco2)CC1 (stereo not drawn) [Compound 348, 4-Cyano-N-[4-(2-furyl)-5-(4-methoxycyclohexylcarbonyl)-thiazol-2-yl]benzamide] | 105 to 109 °C |
| CN1CCC(OC(=O)Nc2nc(-c3ccco3)c(C(=O)c3ccccn3)s2)CC1 [Compound 162, 1-Methylpiperidine-4-yl N-[4-(2-furyl)-5-(pyridin-2-ylcarbonyl)thiazol-2-yl]carbamate] | 222 to 225 °C |
| O=C(Nc1nc(-c2ccco2)c(C(=O)c2ccccn2)s1)c1ccccc1 [Compound 107, N-[4-(2-Furyl)-5-(pyridin-2-ylcarbonyl)thiazol-2-yl]-benzamide] | 165 to 171 °C |
| CN(C)Cc1ccc(C(=O)Nc2nc(-c3ccco3)c(C(=O)C3CCOCC3)s2)cc1 [Compound 384, 4-(Dimethylaminomethyl)-N-[4-(2-furyl)-5-(tetrahydropyran-4-ylcarbonyl)thiazol-2-yl]benzamide] | 109 to 112 °C |
